Data as given in the NIST ThermoML archive (doi:10.1016/j.jct.2016.07.012).

Experiment: molar heat capacity at constant pressure
Conditions: 101.33 kPa, Small (less than 1 g) adiabatic calorimetry

CCCCn1cc[n+](C)c1.F[P-](F)(F)(F)(F)F [1-butyl-3-methylimidazolium hexafluorophosphate]
Conditions | molar heat capacity at constant pressure [J/K/mol]
125.32 K, Metastable crystal | 185.9
127.15 K, Metastable crystal | 191.2
127.23 K, Metastable crystal | 188.2
129.05 K, Metastable crystal | 193.4
129.15 K, Metastable crystal | 190.5
130.95 K, Metastable crystal | 195.6
131.06 K, Metastable crystal | 192.8
132.85 K, Metastable crystal | 197.9
132.97 K, Metastable crystal | 195.1
134.75 K, Metastable crystal | 200.2
134.88 K, Metastable crystal | 197.5
136.65 K, Metastable crystal | 202.5
136.8 K, Metastable crystal | 199.9
138.55 K, Metastable crystal | 204.9
138.71 K, Metastable crystal | 202.4
140.45 K, Metastable crystal | 207.2
140.62 K, Metastable crystal | 204.8
142.35 K, Metastable crystal | 209.7
142.52 K, Metastable crystal | 207.4
144.24 K, Metastable crystal | 212.3
144.42 K, Metastable crystal | 209.9
146.13 K, Metastable crystal | 214.9
146.33 K, Metastable crystal | 212.5
148.01 K, Metastable crystal | 217.6
148.23 K, Metastable crystal | 215.1
149.9 K, Metastable crystal | 220.4
150.13 K, Metastable crystal | 217.7
151.78 K, Metastable crystal | 223.4
152.02 K, Metastable crystal | 220.4
153.65 K, Metastable crystal | 226.5
153.91 K, Metastable crystal | 223.1
155.52 K, Metastable crystal | 229.7
155.79 K, Metastable crystal | 225.9
157.39 K, Metastable crystal | 233.2
157.67 K, Metastable crystal | 228.7
159.24 K, Metastable crystal | 236.9
159.55 K, Metastable crystal | 231.5
161.09 K, Metastable crystal | 241
161.42 K, Metastable crystal | 234.4
162.93 K, Metastable crystal | 245.5
163.29 K, Metastable crystal | 237.3
164.76 K, Metastable crystal | 250.5
165.15 K, Metastable crystal | 240.3
166.58 K, Metastable crystal | 256.4
167.01 K, Metastable crystal | 243.2
168.38 K, Metastable crystal | 263.5
168.87 K, Metastable crystal | 246.3
170.16 K, Metastable crystal | 272.5
170.71 K, Metastable crystal | 249.4
171.91 K, Metastable crystal | 285.3
172.55 K, Metastable crystal | 252.6
173.61 K, Metastable crystal | 306.7
174.39 K, Metastable crystal | 256.1
175.22 K, Metastable crystal | 360.5
176.22 K, Metastable crystal | 258.9
176.68 K, Metastable crystal | 448.8
178.04 K, Metastable crystal | 260.8
178.27 K, Metastable crystal | 265.8
179.86 K, Metastable crystal | 263.5
180.09 K, Metastable crystal | 261.1
181.68 K, Metastable crystal | 266.1
181.91 K, Metastable crystal | 261.4
183.5 K, Metastable crystal | 268.6
183.75 K, Metastable crystal | 262.7
185.31 K, Metastable crystal | 270.9
185.58 K, Metastable crystal | 264.6
187.12 K, Metastable crystal | 273
187.4 K, Metastable crystal | 266.8
188.92 K, Metastable crystal | 274.8
189.22 K, Metastable crystal | 269.2
190.72 K, Metastable crystal | 276.4
191.04 K, Metastable crystal | 271.8
192.53 K, Metastable crystal | 277.7
192.86 K, Metastable crystal | 274.6
194.33 K, Metastable crystal | 278.7
194.66 K, Metastable crystal | 277.6
196.13 K, Metastable crystal | 279.3
196.47 K, Metastable crystal | 280.8
197.94 K, Metastable crystal | 279.8
198.27 K, Metastable crystal | 284.1
199.74 K, Metastable crystal | 280
200.05 K, Metastable crystal | 287.7
201.61 K, Metastable crystal | 280.4
201.89 K, Metastable crystal | 291.8
203.54 K, Metastable crystal | 280.7
203.78 K, Metastable crystal | 296.2
205.47 K, Metastable crystal | 281
205.65 K, Metastable crystal | 301.3
207.4 K, Metastable crystal | 281.3
207.51 K, Metastable crystal | 306.9
209.34 K, Metastable crystal | 281.8
209.36 K, Metastable crystal | 313.5
211.19 K, Metastable crystal | 322.6
211.28 K, Metastable crystal | 282.5
213 K, Metastable crystal | 333.5
213.22 K, Metastable crystal | 283.4
214.77 K, Metastable crystal | 351.9
215.16 K, Metastable crystal | 284.4
216.47 K, Metastable crystal | 395.3
217.1 K, Metastable crystal | 285.1
218.22 K, Metastable crystal | 317.7
219.04 K, Metastable crystal | 285.7
220.12 K, Metastable crystal | 285.9
220.98 K, Metastable crystal | 286.7
222.07 K, Metastable crystal | 286.7
222.93 K, Metastable crystal | 287.8
224.04 K, Metastable crystal | 287.5
224.86 K, Metastable crystal | 288.7
226.9 K, Metastable crystal | 290
228.84 K, Metastable crystal | 291.1
230.78 K, Metastable crystal | 292
232.72 K, Metastable crystal | 293
234.67 K, Metastable crystal | 294.1
236.61 K, Metastable crystal | 295.2
238.55 K, Metastable crystal | 296.3
240.49 K, Metastable crystal | 298.3
242.43 K, Metastable crystal | 299.6
286.27 K, Liquid | 400.3
287.99 K, Liquid | 401.2
289.7 K, Liquid | 402.1
291.41 K, Liquid | 403
293.12 K, Liquid | 404
294.83 K, Liquid | 405.1
296.54 K, Liquid | 405.8
298.25 K, Liquid | 406.9
299.96 K, Liquid | 407.8
301.71 K, Liquid | 409.1
303.52 K, Liquid | 410.1
305.33 K, Liquid | 411
307.14 K, Liquid | 412
308.95 K, Liquid | 412.9
310.75 K, Liquid | 414
312.56 K, Liquid | 415.1
314.36 K, Liquid | 415.8
316.16 K, Liquid | 417
317.97 K, Liquid | 418
319.77 K, Liquid | 419.2
321.57 K, Liquid | 420.1
323.38 K, Liquid | 421
325.18 K, Liquid | 422
326.98 K, Liquid | 423.2
328.78 K, Liquid | 423.9
330.59 K, Liquid | 425
332.39 K, Liquid | 426.1
334.19 K, Liquid | 427.2
335.99 K, Liquid | 428.2
337.79 K, Liquid | 429.2
339.59 K, Liquid | 430.2
341.39 K, Liquid | 431.1
343.18 K, Liquid | 432.1
344.98 K, Liquid | 433.1
346.78 K, Liquid | 434.1
348.58 K, Liquid | 435.2
350.38 K, Liquid | 436.3
352.18 K, Liquid | 437.4
353.99 K, Liquid | 438.3
355.79 K, Liquid | 439.3
357.59 K, Liquid | 440.3
359.4 K, Liquid | 441.1
361.2 K, Liquid | 442.4
363 K, Liquid | 443.4
364.81 K, Liquid | 444.5
366.61 K, Liquid | 445.6
368.41 K, Liquid | 446.3
